Results as given in patent US20030083501A1, “Process for preparing paroxetine HCl which limits formation of pink colored compounds” (priority 2001, published 2003).
Structures can show the parent of a compound that is named as a salt.

Tests used:
Assay type in all cases: physicochemical
[1] = Visual analysis of the colour of a paroxetine HCl solution; conditions: 2 mg/ml paroxetine HCl in 0.05M di-Potassium hydrogen phosphate buffer and 35% acetonitrile, standing 20 minutes
Procedure: One visual analysis can be carried out by preparing a solution of about 2 mg/ml of paroxetine HCl prepared in a mixture of about 0.05M di-Potassium hydrogen phosphate buffer and about 35% of acetonitrile. […] Preferably, the solution of the paroxetine HCl of the present invention is color free for at least about 20 minutes. On the other hand, available commercial products usually produce a pink colored solution under similar conditions. To test the purity of the final product, a 2 mg/ml solution of paroxetine HCl was prepared in a mixture of 0.05M di-Potassium hydrogen phosphate buffer and 35% of acetonitrile.

[2] = HPLC content of the impurity at RRT about 1.5 after storage; conditions: storage for 4 days at 55° C., UV 285 nm, b52 gives such levels as HPLC area percentage, HCl
Source text: Without being bound by theory, it is believed that impurities in paroxetine hydrochloride play a role in the color change to pink. The level of the impurities in paroxetine that are associated with a color change to pink can be analyzed in two different manners. One approach is a simple visual analysis, i.e., observing if a sample of paroxetine HCl has turned pink. Another approach is to measure the degree of an impurity identified by a high pressure liquid chromatography (“HPLC”) relative retention time (“RRT”) of about 1.5. The different UV-spectrum characteristic of this impurity has linked the impurity to the development of a pink color. […] Purification steps to remove this impurity such as by crystallization, extraction, chromatography or other separation procedures are often ineffective. The paroxetine hydrochloride of the present process is substantially free of impurities associated with a color change to pink, and is less susceptible, if at all, to develop a pink color overtime These impurities include the impurity identified by an HPLC RRT of about 1.5. Retention time refers to the time required for a compound to pass from the point of injection to the detector. […] Detected by U.V. spectroscopy at λ=285 nm.

[3] = Visual analysis of the colour of solid paroxetine HCl during storage; conditions: storage for at least one month at 55° C.
Procedure: Another visual analysis can be carried out by observing the color of paroxetine hydrochloride during storage. Preferably, the paroxetine HCl of the present invention is substantially free compounds associated with a pink color for at least four days at a temperature of about 55° C. and a relative humidity of about 60-80%. One of skill in the art can appreciate that the level of the compounds associated with a pink color can vary according to the temperature and other conditions used for storage.
Paroxetine HCl (approximately 4 grams) was dissolved in toluene(40 ml) at reflux. Ascorbic acid (40 mg) and active carbon SX1 (200 mg) were added to the solution and stirred for 5-10 minutes. The solution was then filtered. The filtrate was cooled to 2-4° C., stirred for approximately 1 hour and filtered again to separate a formed precipitate. The solid precipitate was washed with toluene (4 ml) and dried at a temperature of 60° C. under vacuum to give white (color-free) product (3.4 grams). The product was color-free during storage for at least one month at a temperature of 55° C., and yielded solutions (carried out in the same manner as example 1) that were also color-free.

SMILES | development of a pink color in solution [1] | content of the impurity at RRT about 1.5 after storage [2] | color of the product during storage [3]
Fc1ccc([C@@H]2CCNC[C@H]2COc2ccc3c(c2)OCO3)cc1 [Example 1, paroxetine HCl] | did not develop a pink color | – | –
Fc1ccc([C@@H]2CCNC[C@H]2COc2ccc3c(c2)OCO3)cc1 [Example 2, paroxetine HCl] | – | 0.02 | –
Fc1ccc([C@@H]2CCNC[C@H]2COc2ccc3c(c2)OCO3)cc1 [Example 3, paroxetine HCl] | – | 0.23 | –
Fc1ccc([C@@H]2CCNC[C@H]2COc2ccc3c(c2)OCO3)cc1 [Example 5, Paroxetine HCl] | color-free | – | color-free
